From PubChem BioAssay (NCI)
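Where inhibition never reached the appropriate level, the endpoint shown equals the highest concentration tested. Otherwise, values were interpolated linearly from a five-concentration, 48-hour dose response in 96-well plates. TGI denotes the concentration required for complete inhibition of growth.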

Experiments:
Test in all cases: NCI-60 cell line screen, 48 h
[1] = tested on: 786-0 renal
[2] = tested on: A549 NSCLC
[3] = tested on: ACHN renal
[4] = tested on: BT-549 breast
[5] = tested on: CAKI-1 renal
[6] = tested on: CCRF-CEM leukemia
[7] = tested on: COLO 205 colon
[8] = tested on: DU-145 prostate
[9] = tested on: EKVX NSCLC
[10] = tested on: HCT-116 colon
[11] = tested on: HCT-15 colon
[12] = tested on: HL-60(TB) leukemia
[13] = tested on: HOP-62 NSCLC
[14] = tested on: HOP-92 NSCLC
[15] = tested on: HS 578T breast
[16] = tested on: HT29 colon
[17] = tested on: IGROV1 ovarian
[18] = tested on: K-562 leukemia
[19] = tested on: KM12 colon
[20] = tested on: LOX IMVI melanoma
[21] = tested on: M14 melanoma
[22] = tested on: MALME-3M melanoma
[23] = tested on: MCF7 breast
[24] = tested on: MDA-MB-231 breast
[25] = tested on: MDA-MB-435
[26] = tested on: MDA-N
[27] = tested on: NCI-H226 lung
[28] = tested on: NCI-H23 lung
[29] = tested on: NCI-H460 lung
[30] = tested on: NCI-H522 lung
[31] = tested on: NCI/ADR-RES ovarian
[32] = tested on: OVCAR-3 ovarian
[33] = tested on: OVCAR-4 ovarian
[34] = tested on: OVCAR-5 ovarian
[35] = tested on: OVCAR-8 ovarian
[36] = tested on: PC-3 prostate
[37] = tested on: RPMI-8226 leukemia
[38] = tested on: RXF 393 renal
[39] = tested on: SF-268 CNS
[40] = tested on: SF-295 CNS
[41] = tested on: SF-539 CNS
[42] = tested on: SK-MEL-2 melanoma
[43] = tested on: SK-MEL-28 melanoma
[44] = tested on: SK-MEL-5 melanoma
[45] = tested on: SK-OV-3 ovarian
[46] = tested on: SN12C renal
[47] = tested on: SNB-19 CNS
[48] = tested on: SNB-75 CNS
[49] = tested on: SR leukemia
[50] = tested on: SW-620 colon
[51] = tested on: T-47D breast
[52] = tested on: TK-10 renal
[53] = tested on: U251 CNS
[54] = tested on: UACC-257 melanoma
[55] = tested on: UACC-62 melanoma
[56] = tested on: UO-31 renal
[57] = tested on: A498 renal
[58] = tested on: HCC-2998 colon
[59] = tested on: MOLT-4 leukemia

SMILES: O=C(NC(=S)Nc1ccc2c(c1)Sc1ccccc1O2)c1ccc([N+](=O)[O-])cc1
- TGI [1]: > 100 µM
- TGI [2]: > 100 µM
- TGI [3]: > 100 µM
- TGI [4]: > 100 µM
- TGI [5]: > 100 µM
- TGI [6]: > 100 µM
- TGI [7]: > 100 µM
- TGI [8]: > 100 µM
- TGI [9]: > 100 µM
- TGI [10]: > 100 µM
- TGI [11]: > 100 µM
- TGI [12]: > 100 µM
- TGI [13]: > 100 µM
- TGI [14]: > 100 µM
- TGI [15]: > 100 µM
- TGI [16]: > 100 µM
- TGI [17]: > 100 µM
- TGI [18]: > 100 µM
- TGI [19]: > 100 µM
- TGI [20]: > 100 µM
- TGI [21]: > 100 µM
- TGI [22]: > 100 µM
- TGI [23]: > 100 µM
- TGI [24]: > 100 µM
- TGI [25]: > 100 µM
- TGI [26]: > 100 µM
- TGI [27]: > 100 µM
- TGI [28]: > 100 µM
- TGI [29]: > 100 µM
- TGI [30]: > 100 µM
- TGI [31]: > 100 µM
- TGI [32]: > 100 µM
- TGI [33]: > 100 µM
- TGI [34]: > 100 µM
- TGI [35]: > 100 µM
- TGI [36]: > 100 µM
- TGI [37]: > 100 µM
- TGI [38]: > 100 µM
- TGI [39]: > 100 µM
- TGI [40]: > 100 µM
- TGI [41]: > 100 µM
- TGI [42]: > 100 µM
- TGI [43]: > 100 µM
- TGI [44]: > 100 µM
- TGI [45]: > 100 µM
- TGI [46]: > 100 µM
- TGI [47]: > 100 µM
- TGI [48]: > 100 µM
- TGI [49]: > 100 µM
- TGI [50]: > 100 µM
- TGI [51]: > 100 µM
- TGI [52]: > 100 µM
- TGI [53]: > 100 µM
- TGI [54]: > 100 µM
- TGI [55]: > 100 µM
- TGI [56]: > 100 µM

SMILES: COc1cc(/C=C2/SC(c3ccccc3)N(Cc3ccccc3)C2=O)cc(OC)c1OC (configuration not stated)
- TGI [1]: > 100 µM
- TGI [57]: > 100 µM
- TGI [2]: > 100 µM
- TGI [3]: > 100 µM
- TGI [4]: > 100 µM
- TGI [5]: > 100 µM
- TGI [7]: 45.9 µM
- TGI [8]: > 100 µM
- TGI [9]: > 100 µM
- TGI [58]: > 100 µM
- TGI [10]: > 100 µM
- TGI [11]: > 100 µM
- TGI [13]: > 100 µM
- TGI [14]: > 100 µM
- TGI [15]: > 100 µM
- TGI [16]: > 100 µM
- TGI [18]: > 100 µM
- TGI [19]: > 100 µM
- TGI [20]: > 100 µM
- TGI [21]: > 100 µM
- TGI [22]: > 100 µM
- TGI [23]: > 100 µM
- TGI [24]: > 100 µM
- TGI [25]: > 100 µM
- TGI [26]: > 100 µM
- TGI [59]: 63.2 µM
- TGI [27]: > 100 µM
- TGI [28]: > 100 µM
- TGI [29]: > 100 µM
- TGI [30]: 63 µM
- TGI [31]: > 100 µM
- TGI [32]: > 100 µM
- TGI [33]: > 100 µM
- TGI [34]: > 100 µM
- TGI [35]: > 100 µM
- TGI [37]: 75.1 µM
- TGI [38]: 72.3 µM
- TGI [39]: > 100 µM
- TGI [40]: > 100 µM
- TGI [42]: > 100 µM
- TGI [43]: > 100 µM
- TGI [44]: 28 µM
- TGI [45]: > 100 µM
- TGI [46]: > 100 µM
- TGI [47]: > 100 µM
- TGI [49]: 45.1 µM
- TGI [50]: > 100 µM
- TGI [51]: > 100 µM
- TGI [52]: > 100 µM
- TGI [53]: > 100 µM
- TGI [54]: > 100 µM
- TGI [55]: > 100 µM
- TGI [56]: > 100 µM

SMILES: C=CCNC(=S)N=Nc1c(O)n(CN2CCOCC2)c2ccc([N+](=O)[O-])cc12
- TGI [1]: > 100 µM
- TGI [57]: 65.6 µM
- TGI [2]: > 100 µM
- TGI [3]: > 100 µM
- TGI [4]: > 100 µM
- TGI [5]: > 100 µM
- TGI [6]: > 100 µM
- TGI [7]: > 100 µM
- TGI [8]: > 100 µM
- TGI [9]: > 100 µM
- TGI [58]: 90.3 µM
- TGI [10]: > 100 µM
- TGI [11]: > 100 µM
- TGI [12]: > 100 µM
- TGI [13]: > 100 µM
- TGI [14]: 83.3 µM
- TGI [15]: > 100 µM
- TGI [16]: > 100 µM
- TGI [17]: > 100 µM
- TGI [18]: > 100 µM
- TGI [19]: > 100 µM
- TGI [20]: > 100 µM
- TGI [21]: > 100 µM
- TGI [22]: > 100 µM
- TGI [23]: > 100 µM
- TGI [24]: > 100 µM
- TGI [25]: > 100 µM
- TGI [26]: > 100 µM
- TGI [59]: > 100 µM
- TGI [27]: > 100 µM
- TGI [28]: > 100 µM
- TGI [29]: > 100 µM
- TGI [30]: > 100 µM
- TGI [31]: > 100 µM
- TGI [32]: > 100 µM
- TGI [33]: > 100 µM
- TGI [34]: > 100 µM
- TGI [35]: > 100 µM
- TGI [36]: > 100 µM
- TGI [37]: > 100 µM
- TGI [38]: > 100 µM
- TGI [39]: > 100 µM
- TGI [40]: > 100 µM
- TGI [41]: > 100 µM
- TGI [42]: > 100 µM
- TGI [43]: > 100 µM
- TGI [44]: 84.6 µM
- TGI [45]: > 100 µM
- TGI [46]: > 100 µM
- TGI [47]: > 100 µM
- TGI [48]: 88.3 µM
- TGI [50]: > 100 µM
- TGI [51]: 95.1 µM
- TGI [52]: 93.1 µM
- TGI [53]: > 100 µM
- TGI [54]: > 100 µM
- TGI [55]: > 100 µM
- TGI [56]: > 100 µM
